What all share (format): cell-based
Experiment [1] has as its system TNF-alpha expression in primary human CD14+ cells. In words: TNF-alpha ELISA in LPS-stimulated human CD14+ monocyte-derived macrophages. The conditions noted are these: 2 hr LPS+4 hr Tx. As to the method: All chemicals, unless otherwise indicated, were procured from Sigma-Aldrich and used without additional purification. Stock solutions of Docosahexaenoic acid (DHA) in Dimethyl Sulfoxide (DMSO), Aspirin in physiologically buffered saline (PBS, pH 7.4) were prepared prior to their use. E. Coli derived Lipopolysaccharide (LPS) was reconstituted at 1 ug/mL, sterile filtered, and stored at −80 C until needed. RAW 264.7 murine macrophage cell line was obtained from ATCC (Manassas, Va.). Cells were thawed at passage 5 or 6 and were maintained in DMEM complete growth media supplemented with 10% FBS (Hyclone, GE Healthcare)+1% Penn/strep (Gibco) until needed. Peripheral blood derived primary human CD14+monocytes (BioreclamationlVT, Albany, N.Y.) were also maintained in DMEM growth media until needed. […]
(§1) Following each treatment, sample media was tested for inflammatory tumor necrosis factor alpha (TNF-alpha) expression using a commercially available sandwich ELISA kits designed for either mouse or human cells (R&D Systems). Samples showing reduction in TNF-alpha were further analyzed using the Resolvin D1 and Resolvin D2 ELISA kits (Cayman Chemical). Mean and standard deviations were calculated for each analyte. ELISA results were normalized to the total protein readings of each well. […]
In general terms: An ELISA detects its analyte on a solid surface through an enzyme-linked reagent.

Experiment [2] concerns Resolvin D1 (RvD1) expression and release. In words: Resolvin D1 ELISA, LPS-challenged human macrophages. As to the method:
(§2) All chemicals, unless otherwise indicated, were procured from Sigma-Aldrich and used without additional purification. Stock solutions of Docosahexaenoic acid (DHA) in Dimethyl Sulfoxide (DMSO), Aspirin in physiologically buffered saline (PBS, pH 7.4) were prepared prior to their use. E. Coli derived Lipopolysaccharide (LPS) was reconstituted at 1 ug/mL, sterile filtered, and stored at −80 C until needed. RAW 264.7 murine macrophage cell line was obtained from ATCC (Manassas, Va.). Cells were thawed at passage 5 or 6 and were maintained in DMEM complete growth media supplemented with 10% FBS (Hyclone, GE Healthcare)+1% Penn/strep (Gibco) until needed. Peripheral blood derived primary human CD14+monocytes (BioreclamationlVT, Albany, N.Y.) were also maintained in DMEM growth media until needed. Prior to experimentation, monocytes were differentiated to macrophages by using macrophage colony stimulating factor (M-CSF) at 25 ng/mL in media for up to three days or until cells had reached near confluence (˜95%). RAW 264.7 cells were seeded at roughly 5,000 cells per well in a 96-well plate and allowed to grow to near confluence. At confluence, cells were pre-treated with LPS for 2 hours. At the 2-hour mark, cells were treated with DMEM media containing DMSO (1% w/w, negative control), Aspirin (positive control, 10 nmol/L), DHA (100 umol/L) or a combination of the two. Bio-active composite material Hydroxyapatite-Docosahexaenoic acid (HA-DHA) was dispersed in DMSO and delivered at similar concentrations as DHA alone (described above). Cells were harvested at 2, 4, and 6 hours after LPS stimulation. Human CD14+ cells were seeded at roughly 3.3*10^4 cells per well in a 96-well plate and treated with MCSF until full confluence. Cells were treated with LPS for 2 hours, at which time they were exposed to the same treatments described above for RAW 264.7 cells. Cells were harvested at 4 and 6 hours. […]
as §1
(§3) To investigate further the anti-inflammatory effects the inventors observed in both human and murine macrophages challenged with pathogenic LPS and to determine if the bio-active composite material HA-DHA on its' own and in combination with Aspirin induces formation of pro-resolution mediators, the inventors measured Resolvin production secreted from challenged human macrophages.

The test system of experiment [3] is Resolvin D2 (RvD2) expression and release. In words: Resolvin D2 ELISA, LPS-challenged human macrophages. As to the method:
as §2, §1, §3

[4] abbreviates: earlier time point (FIG. 19, Table 2).
Where [5] appears, read: 2 hours LPS + 6 hours treatment (Table 5).

Regarding `CC(=O)Oc1ccccc1C(=O)O` [Aspirin], the “TNF-alpha expression (Mean)” value in experiment [1] is 9.1 pg/µg. Also, the “Resolvin D1 (RvD1) expression and release (Mean)” value was determined as 16.96 in experiment [2] (2-hour+6-hour Tx (Table 3)) and 18.87 in experiment [2] (setting [4]). The “Resolvin D2 (RvD2) expression (Mean)” value in experiment [3] (2 hour LPS+4 hr Tx (Table 4)) is 25.02; in experiment [3] (setting [5]), 73.25.
In the same order, the values of `CC/C=C\C/C=C\C/C=C\C/C=C\C/C=C\C/C=C\CCC(=O)O` [DHA, 4Z, 7Z, 10Z, 13Z, 16Z, 19Z)-docosa-4,7,10,13,16,19-hexaenoic acid] are 10.5 pg/µg, 678, 771.1, 194.2 and 161.9.

Source of the values: patent US20190254274A1, “COMPOSITE MATERIALS DESIGNED TO POSSES BIO-ACTIVE PROPERTIES AND SYNTHESIS AND USES THEREO” (ADA Foundation, priority 2018, published 2019).
